Results taken from patent US6743795B1, “3-nitropyridine derivaives and the pharmaceutical compositions containing said derivatives” (Dong Wha Pharm. Ind. Co. Ltd., priority 1999, dated 2004).
Where two headings read alike, the source gives them in different places.

Legend:
HepG2 cells = test: Cytotoxicity test on HepG2 cells (MTT); format: cell-based
From the text: (§1) <Experiment 4> Cytotoxicity Test

HBV = test: Proliferation of HBV in HBV producing cell line HepG 2.2.15 (competitive PCR of culture supernatant); format: cell-based, Hepatitis B virus; details: HepG 2.2.15, one week; for inhibition at 0.01 µg/mL / inhibition at 0.1 µg/mL / inhibition at 1 µg/mL: Hepatitis B virus, HepG2.2.15, 168 h, read-out: Inhibitory effect on the HBV proliferation: Inhibition activity on HBV-RT (%)
Protocol: <Experiment 2> Inhibitory Effect on the Proliferation of HBV in HBV Producing Cell Line
The following experiment was performed to determine inhibitory effects of compounds of formula 1 on the proliferation of HBV producing cell line.
To test for antiviral effect, replication and proliferation of HBV were measured in HepG 2.2.15, a human liver cancer cell line.
The cell concentration was adjusted to 1×10^5 cells/ml and 1 ml was added to each well of a 24-well cell culture plate, which was then kept in a culture box for 3-4 days at 37° C. under 5% CO2 until cells grew sufficiently, changing culture medium everyday. When the cells matured sufficiently, the test compounds were added to the final concentrations of 0.01, 0.1, and 1 μg/ml. One week after the addition of test compounds, the culture solution was centrifuged at 5,000 rpm for 10 min. 25 μl of supernatant was transferred to a new tube and 5 μl of lysis solution [0.54N NaOH, 0.06% NP40] was added to each tube. After keeping the tube at 37° C. for 1 hr, 30 μl of neutralizing solution [0.09N HCl 0.1MTris-HCl, pH7.4] was added as a reaction solution for competitive polymerase chain reaction (PCR).
PCR was performed using genetic sequence of HBV core protein as a matrix. PCR reaction was carried out by adding 1 unit of Taq polymerase enzyme to 25 pmol of each primer, 250 μM dNTP, 5 μl of PCR reaction solution [0.54N NaOH, 0. 06% NP40, 0.09N HCl, 0.1M Tris-HCl, pH 7.4].
DNA polymerized by PCR was electrophoresed on Agarose gel and quantitatively analyzed using an image analyzer (Gel Doc 1000, Bio-Rad) in order to evaluate the effect of compounds of the present invention on the reduction of HBV proliferation.
3TC (lamivudine) was used as a positive control at the same concentrations as those of the test compounds. The percentage of reduction in HBV proliferation was calculated using the group without test compound as a control and the results are represented in Table 4.

HBV polymerase = target: T1, HBV polymerase (Hepatitis B virus genotype A2 subtype adw2, UniProt P03159); test: In vitro reverse transcription activity of HBV polymerase (ELISA-type, DIG/biotin nucleotides); format: biochemical; details: for inhibition at 0.01 µg/mL / inhibition at 0.1 µg/mL / inhibition at 1 µg/mL: read-out: Inhibition activity on HBV-RT (%)
T1 construct: made in house; host or cells: E. coli
T1 sequence (P03159 whole entry): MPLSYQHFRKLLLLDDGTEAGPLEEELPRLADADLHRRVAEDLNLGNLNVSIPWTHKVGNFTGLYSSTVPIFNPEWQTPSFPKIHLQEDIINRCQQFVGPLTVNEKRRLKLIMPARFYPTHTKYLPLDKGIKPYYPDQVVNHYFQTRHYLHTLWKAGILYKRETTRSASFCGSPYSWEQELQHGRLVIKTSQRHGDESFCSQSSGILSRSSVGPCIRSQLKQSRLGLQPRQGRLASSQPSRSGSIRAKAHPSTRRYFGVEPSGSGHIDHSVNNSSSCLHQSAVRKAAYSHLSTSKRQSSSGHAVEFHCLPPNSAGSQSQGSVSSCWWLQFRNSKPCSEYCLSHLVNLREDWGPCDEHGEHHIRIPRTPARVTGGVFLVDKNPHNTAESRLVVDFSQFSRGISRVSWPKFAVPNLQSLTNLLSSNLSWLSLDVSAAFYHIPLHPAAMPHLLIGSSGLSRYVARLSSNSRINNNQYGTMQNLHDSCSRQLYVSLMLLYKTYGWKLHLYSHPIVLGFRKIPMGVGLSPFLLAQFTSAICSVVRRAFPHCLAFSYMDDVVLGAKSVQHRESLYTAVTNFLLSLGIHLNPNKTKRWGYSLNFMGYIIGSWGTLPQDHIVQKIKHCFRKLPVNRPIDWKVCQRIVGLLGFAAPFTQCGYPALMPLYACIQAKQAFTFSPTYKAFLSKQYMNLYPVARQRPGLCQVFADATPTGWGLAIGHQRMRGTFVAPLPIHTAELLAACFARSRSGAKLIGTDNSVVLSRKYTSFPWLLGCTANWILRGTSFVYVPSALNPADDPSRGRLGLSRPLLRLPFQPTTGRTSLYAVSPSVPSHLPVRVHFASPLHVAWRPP
Protocol: <Experiment 1> Inhibitory Effect on the In Vitro Activities of HBV Polymerase in Reverse Transcription
The following in vitro experiment was performed to determine the effect of the compounds of formula 1 on the activity of HBV polymerase during reverse transcription.
The present inventors submitted application for a patent concerning HBV polymerase genetically expressed in and separated from E.coli, the process of its preparation, and the method to measure the enzyme activities (KR 94-3918, KR 96-33998). In the present experiments HBV polymerase was used which had been expressed in E. coli as stated above.
The method used in the present invention to measure in vitro reverse transcribing activities of HBV polymerase is as follows. Basic principles are the same as for ELISA. Nucleotides with biotin or digoxigenin group attached are included as substrates and anti-DIG antibodies attached to peroxidase enzyme recognize the polymerized substrates.
To the wells coated with streptavidin, 20 μl of HBV polymerase, 20 μl of reaction mixture (10 μM each of DIG-UTP and Biotin-UTP, 46 mM Tris-HCl, 266 mM KCl, 27.5 mM MgCl2, 9.2 mM DTT substrate/primer nybrid), and 20 μl of test compound (added to 1, 0.1, and 0.01 μg/ml) were added and allowed to react at 22° C. for 15 hrs. During this reaction, HBV polymerase catalyzes DNA synthesis and digoxigenin and biotin attached to nucleotides form bonds with streptavidin coated on the bottom of wells. When the reaction was done, each well was washed with 250 μl of cleaning buffer (pH 7.0) for 30 seconds, which was repeated five times to remove remaining impurities. 200 μl of anti-DIG-POD antibody was added to each well and allowed to react for 1 hr at 37° C., and the wells were washed with cleaning buffer to remove impurities. 200 μl each of ABTS™, a substrate of peroxidase, was then added and allowed to react at room temperature for 30 min. Absorbance was measured at 405 nm using ELISA reader.
The percentage of reduction in HBV polymerase activities for reverse transcription was calculated using the group without test compound as a control and the results are shown in Table 3.

[1] = target: T2, HIV reverse transcriptase (Human immunodeficiency virus type 1 group M subtype B, UniProt P03366); test: In vitro HIV reverse transcriptase activity (non-radioactive RT assay kit); format: biochemical
T2 construct: purchased Boehringer Mannheim
Protocol: <Experiment 3> Inhibitory Effect on the In Vitro HIV Enzyme Activities in Reverse Transcription
The following in vitro experiments were done to determine the effect of compounds of formula 1 on the reduction of HIV enzyme activities in reverse transcription.
Non-radioactive reverse transcriptase assay kit (Boehringer Mannheim) was used in the measurement of in vitro transcriptase activities. 20 μl (40 ng) of HIV transcriptase and 20 μl of reaction mixture containing matrix-primer hybrid poly(A)oligo(dT)15, DIG(digoxigenin)-dUTP, biotin-dUTP, and TTP were added to wells coated with streptavidin. Test compounds were also added at the final concentrations of 0.1 and 1 μg/ml and allowed to react at 37° C. for 1 hr. At this time, DNA is formed from RNA by the action of HIV reverse transcriptase, forming bonds with streptavidin coated on the bottom of wells because of digoxigenin and biotin moieties attached to nucleotides.
When the reaction was completed, each well was washed with 250 μl of cleaning buffer (pH7.0) for 30sec. five times to remove remaining impurities. 200 μl of anti-DIG-POD […] was added to each well, allowed to react at 37° C. for 1 hr and washed as above to remove impurities. 200 μl of ABTS™, a substrate for peroxidase, was added to each well and allowed to react at room temperature for 30 min. Absorbance at 405 nm was then read for each solution using ELISA reader and used for quantitative determination of inhibitory effect on the HIV transcriptase activities. The percentage of reduction in the activities of HIV reverse transcriptase was calculated using the group without test compound as control and the results are represented in Table 5.

[2] = Cytotoxicity test on HepG2 cells (MTT); format: cell-based; details: human; HepG2 cells, MTT; read-out: Cytotoxicity on HepG2, IC50 (50% Inhibitory Concentration)
From the text: as §1

Row | Molecule | Cytotoxicity on HepG2, IC50 (50% Inhibitory Concentration) (HepG2 cells; HepG2 cells, MTT) | Cytotoxicity on HepG2, MCD (Minimal Cytotoxic Concentration) (HepG2 cells; HepG2 cells, MTT) | Inhibitory effect on the HBV proliferation: Inhibition activity on HBV-RT (%) (HBV; 0.01 μg/ml) | Inhibitory effect on the HBV proliferation: Inhibition activity on HBV-RT (%) (HBV; 0.1 μg/ml) | Inhibitory effect on the HBV proliferation: Inhibition activity on HBV-RT (%) (HBV; 1 μg/ml) | Inhibition activity on HBV-RT (%) (HBV polymerase; 0.01 μg/ml test compound) | Inhibition activity on HBV-RT (%) (HBV polymerase; 0.1 μg/ml test compound) | Inhibition activity on HBV-RT (%) (HBV polymerase; 1 μg/ml test compound) | Inhibitory effect on the activities of HIV reverse transcriptase: Inhibition activity on HIV-RT (%) ([1]; 0.1 μg/ml test compound) | Inhibitory effect on the activities of HIV reverse transcriptase: Inhibition activity on HIV-RT (%) ([1]; 1 μg/ml test compound) | Cytotoxicity on HepG2, IC50 (50% Inhibitory Concentration) (HepG2 cells) | Cytotoxicity on HepG2, MCD (Minimal Cytotoxic Concentration) (HepG2 cells) | melting point | inhibition at 0.01 µg/mL (HBV; 0.01 μg/ml) | inhibition at 0.1 µg/mL (HBV; 0.1 μg/ml) | inhibition at 1 µg/mL (HBV; 1 μg/ml) | inhibition at 0.01 µg/mL (HBV polymerase; 0.01 μg/ml test compound) | inhibition at 0.1 µg/mL (HBV polymerase; 0.1 μg/ml test compound) | inhibition at 1 µg/mL (HBV polymerase; 1 μg/ml test compound) | IC50 [2]
1 | CC(C)Nc1ccc([N+](=O)[O-])c(Nc2ccc3cn[nH]c3c2)n1 [Example 6, 2-(1H-6-indazolylamino)-6-isopropyl amino-3-nitropyridine] | >100 µg/mL | 100 µg/mL | 33% | 72% | 90% | 49% | 76% | 91% | 50% | 69% | – | – | – | – | – | – | – | – | – | –
2 | 6-ethyl-(2-hydroxyethyl)amino-2-(1H-5-indazolylamino)-3-nitropyridine [Example 11] | – | – | 20% | 45% | 83% | 35% | 60% | 85% | 46% | 67% | >100 µg/mL | 100 µg/mL | – | – | – | – | – | – | – | –
3 | O=[N+]([O-])c1ccc(NC(CO)CO)nc1Nc1ccc2[nH]ncc2c1 [Example 14, 6-[bis(hydroxymethyl)methylamino)-2-(1H-5-indazolylamino)-3-nitropyridine] | – | – | – | – | – | – | – | – | 44% | 59% | – | – | > 270 °C | 22% | 41% | 80% | 30% | 49% | 85% | –
4 | COc1ccc([N+](=O)[O-])c(Nc2ccc3cn[nH]c3c2)n1 [Example 2, 2-(1H-6-indazolylamino)-6-methoxy-3-nitropyridine] | – | 100 µg/mL | – | – | – | – | – | – | – | – | – | – | – | – | 40% | 72% | 12% | 50% | 76% | > 100 µg/mL
5 | C[C@@H](CCO)Nc1ccc([N+](=O)[O-])c(Nc2ccc3[nH]ncc3c2)n1 [Example 12, 6-[(1S)-1-(hydroxyethyl)ethylamino]-2-(1H-5-indazolylamino)-3-nitropyridine] | – | – | – | – | – | – | – | – | 40% | 64% | – | – | > 270 °C | 29% | 48% | 85% | 38% | 56% | 90% | –
